Results reported in patent publication US4540702A, “2-Substituted-4-thiazolidones” (Kureha Kagaku Kogyo Kabushiki Kaisha, priority 1979, dated 1985).

Key:
Format in all cases: in vivo
[1] = Effect against peptic ulcer formed by ligating the pylorus (Shay et al.); settings: pylorus-ligated rat, 100 mg/kg intraperitoneal; for inhibition in vivo at 100 mg/kg: Rattus norvegicus, ip, 15 h, vs control group, read-out: Rate of suppression of peptic ulcer; for Coefficient of peptic ulcer: 15 hours
Experimental: Each male rat of a group consisting of 10 animals, weighing 180 to 200 g, after 48 hours' fasting, was subjected to ligature at its pyloric part under the anesthesia by ether following the method of Shay et al. (refer to Gastroenterology, Vol. 5, 43, 1945). Just after the ligature, each of the present compounds suspended in an aqueous physiological saline solution was injected into each rat's abdominal cavity at a dose rate of 100 mg/kg body weight, the control group being injected with an aqueous physiological saline solution. After keeping the rats at a state of fasting without taking water for 15 hours, the rats were sacrificed by ether and their stomachs were removed to examine under a microscope for autopsy. The longitudinal and horizontal lengths of the thus formed peptic ulcer were determined and expressed by the product (mm^2), and the total sum of the products was represented as the coefficient of ulcer.
The rate of suppression of peptic ulcer (%) is expressed by the ratio of the difference between the coefficient of peptic ulcer of control group and the coefficient of peptic ulcer of the treated group to the coefficient of peptic ulcer of control group multiplied by 100.

[2] = Effect on duodenal peptic ulcer induced by acetic acid (Okabe et al.); settings: oral 100 mg/kg/day, three times a day for 10 days; for inhibition in vivo at 100 mg/kg/day: Rattus norvegicus, po, 240 h, vs control group, read-out: Rate of curation of peptic ulcer; for Coefficient of peptic ulcer: acetic acid duodenal ulcer rat
Text: The inventors of the present invention, taking into account of these situations, added to the method of evaluation the effect of accelerating the curation of the peptic ulcer by orally administering the present compound and a commercialized anti-peptic medicine, respectively to rats to which duodenal peptic ulcer due to acetic acid (refer to Okabe, 1971) considered to be most closely resembling to human peptic ulcer has been artificially formed.
Following the method of Okabe et al. (refer to Amer. J. Dig. Dis., Vol. 16, 277, 1971), each male rat weighing 240 to 260 g of a group consisting of 15 animals was subjected to laparotomy under ether-anesthesia and a metal circular frame was put on a part of the serosa at the distance of 5 to 7 mm from the duodenal pylorus and 0.06 ml of glacial acetic acid was poured on the circular part of the frame. After 30 seconds, the acetic liquid was removed and the frame was also removed. Each of the present compounds suspended in an aqueous 0.5% CMC solution was orally administered to the rat from after 3 days of the operation three times a day for consecutive 10 days, rats of control group being given the aqueous 0.5% CMC solution. After ending the administration, the rats were sacrificed by ether, their duodenum being removed to be examined under a microscope for autopsy. The longitudinal and horizontal lengths of the thus formed ulcer were determined and the product of the lengths expressed by mm^2 was recorded as the coefficient of peptic ulcer. The rate of curation of peptic ulcer, in this Example is calculated by the same manner as the rate of suppression of peptic ulcer in Example 5.

[3] = Suppressive action on gastric secretion (pyloric ligature); settings: rat, intraduodenal 200 mg/kg, 4 hours; for Rate of suppression on gastric secretion: vs control
Experimental: Groups of male rats (a group consisted of 10 animals) were subjected to pyloric ligature under etherization after fasting for 24 hours, and each of the compounds to be tested was administered intraduodenally as an emulsion or suspension in an aqueous 0.5% by weight solution of sodium carboxymethylcellulose just after ligation. After 4 hours of the laparotomy, the stomach of each rat was extirpated under etherization, and the amount of gastric juice in the stomach was measured.

| SMILES | inhibition in vivo at 100 mg/kg [1] | Coefficient of peptic ulcer [1] | inhibition in vivo at 100 mg/kg/day [2] | Coefficient of peptic ulcer [2] | Amount of gastric juice [3] | Rate of suppression on gastric secretion [3] |
| --- | --- | --- | --- | --- | --- | --- |
| COc1cccc(C2NC(=O)CS2)c1 (stereo not drawn) [2-(3-methoxyphenyl)-4-thiazolidone] | 86% | 5.5 mm^2 | 73.3% | 2.0 mm^2 |  |  |
| COc1cc(C2NC(=O)CS2)cc(OC)c1O (stereo not drawn) [2-(3,5-dimethoxy-4-hydroxyphenyl)-4-thiazolidone] | 81.9% | 7.6 mm^2 | 88% | 2.4 mm^2 |  |  |
| COc1ccc(OC)c(C2NC(=O)CS2)c1 (stereo not drawn) [2-(2,5-dimethoxyphenyl)-4-thiazolidone] | 79% | 9.4 mm^2 | 65.3% | 2.6 mm^2 | 3.5 mL | 32.8% |
| CCOc1ccccc1C1NC(=O)CS1 (stereo not drawn) [2-(2-ethoxyphenyl)-4-thiazolidone] | 81.9% | 7.6 mm^2 | 76% | 1.8 mm^2 | 4.3 mL | 35.8% |
| COc1cccc(C2NC(=O)CS2)c1OC (stereo not drawn) [2-(2,3-dimethoxyphenyl)-4-thiazolidone] | 82.9% | 8.8 mm^2 | 82.7% | 1.3 mm^2 | 3.7 mL | 44.7% |
| COc1ccccc1C1NC(=O)CS1 (stereo not drawn) [2-(2-methoxyphenyl)-4-thiazolidone] | 87.4% | 5.3 mm^2 | 80% | 1.5 mm^2 | 4.0 mL | 40.2% |
| COc1ccc(C2NC(=O)CS2)cc1OC (stereo not drawn) [2-(3,4-dimethoxyphenyl)-4-thiazolidone] | 91.9% | 3.4 mm^2 | 80% | 1.5 mm^2 | 3.3 mL | 50.7% |
| COc1cc(C2NC(=O)CS2)cc(OC)c1OC (stereo not drawn) [2-(3,4,5-trimethoxyphenyl)-4-thiazolidone] | 85.8% | 6.5 mm^2 | 82.1% | 1.4 mm^2 |  |  |
| CN(C)c1ccc(C2NC(=O)CS2)cc1 (stereo not drawn) [2-(4-dimethylaminophenyl)-4-thiazolidone] | 75% | 10.5 mm^2 | 88% | 2.4 mm^2 |  |  |
| CC(C)=CCCC(C)=CCCC(C)=CCCC(=O)OCC=C(C)CCC=C(C)C [Gefarnate, 3,7dimethyl-2,6-octadienyl 5,9,13trimethyl-4,8,12-tetradecatrienoate, reference compound] | ~11% | 37.4 mm^2 | 23% | 5.8 mm^2 | 6.5 mL | 2.9% |
| O=C1CSC(c2ccccc2C(=O)O)N1 (stereo not drawn) [2-(2-carboxyphenyl)-4-thiazolidone] | 79.8% | 8.5 mm^2 | 60% | 3.0 mm^2 |  |  |
| COc1ccc(C2NC(=O)CS2)cc1 (stereo not drawn) [2-(4-methoxyphenyl)-4-thiazolidone] | 68.1% | 13.4 mm^2 | 58.7% | 3.1 mm^2 |  |  |
